Measured values taken from BigSolDB 2.1.

O=C(O)[C@@H]1Cc2ccccc2N1
Conditions | solubility (mole fraction)
in ethanol, 283.15 K | 0.00168
in ethanol, 288.15 K | 0.00216
in ethanol, 292.85 K | 0.00284
in ethanol, 298.25 K | 0.00358
in ethanol, 303.05 K | 0.00454
in ethanol, 308.15 K | 0.00572
in ethanol, 313.45 K | 0.00721
in ethanol, 318.55 K | 0.00895
in ethanol, 323.35 K | 0.0107
in ethanol, 328.75 K | 0.0138
in ethanol, 333.25 K | 0.0159
in ethanol, 338.25 K | 0.0186
in ethanol, 343.15 K | 0.022
in isopropanol, 283.15 K | 0.000941
in isopropanol, 288.15 K | 0.0015
in isopropanol, 293.25 K | 0.00197
in isopropanol, 298.15 K | 0.0028
in isopropanol, 303.35 K | 0.00387
in isopropanol, 307.95 K | 0.00504
in isopropanol, 313.05 K | 0.00685
in isopropanol, 318.65 K | 0.0093
in isopropanol, 323.55 K | 0.0109
in isopropanol, 328.35 K | 0.0144
in isopropanol, 333.15 K | 0.0169
in isopropanol, 338.35 K | 0.0202
in isopropanol, 343.05 K | 0.0241
in isopropanol, 348.75 K | 0.0299
in isopropanol, 353.15 K | 0.0369
in methanol, 283.15 K | 0.00436
in methanol, 288.25 K | 0.00543
in methanol, 292.75 K | 0.00647
in methanol, 298.15 K | 0.00809
in methanol, 302.95 K | 0.0103
in methanol, 308.05 K | 0.0122
in methanol, 313.15 K | 0.0145
in methanol, 318.25 K | 0.0166
in methanol, 323.15 K | 0.019
in methanol, 328.55 K | 0.0201
in methanol, 333.15 K | 0.026
in n-butanol, 283.15 K | 0.00228
in n-butanol, 288.35 K | 0.00316
in n-butanol, 293.05 K | 0.00395
in n-butanol, 298.25 K | 0.00481
in n-butanol, 303.55 K | 0.00592
in n-butanol, 308.05 K | 0.00708
in n-butanol, 313.65 K | 0.0083
in n-butanol, 318.45 K | 0.0102
in n-butanol, 323.25 K | 0.0111
in n-butanol, 328.05 K | 0.0131
in n-butanol, 332.95 K | 0.0144
in n-butanol, 338.15 K | 0.0162
in n-butanol, 343.55 K | 0.0186
in n-butanol, 348.95 K | 0.0217
in n-butanol, 353.05 K | 0.0237
in n-butanol, 358.15 K | 0.0268
in n-propanol, 283.15 K | 0.000819
in n-propanol, 288.25 K | 0.00105
in n-propanol, 293.05 K | 0.00153
in n-propanol, 298.35 K | 0.00211
in n-propanol, 303.15 K | 0.00284
in n-propanol, 308.45 K | 0.0039
in n-propanol, 313.15 K | 0.00502
in n-propanol, 318.75 K | 0.00673
in n-propanol, 323.25 K | 0.00835
in n-propanol, 328.15 K | 0.0107
in n-propanol, 333.05 K | 0.0135
in n-propanol, 338.15 K | 0.0167
in n-propanol, 343.55 K | 0.0214
in n-propanol, 348.65 K | 0.0261
in n-propanol, 353.15 K | 0.0304
in n-propanol, 358.15 K | 0.0397
in water, 283.15 K | 0.000308
in water, 288.35 K | 0.000309
in water, 292.25 K | 0.000316
in water, 297.45 K | 0.000322
in water, 302.15 K | 0.000335
in water, 308.55 K | 0.000365
in water, 313.15 K | 0.000401
in water, 318.25 K | 0.00046
in water, 323.45 K | 0.000547
in water, 328.65 K | 0.000673
in water, 333.15 K | 0.000825
in water, 338.55 K | 0.00108
in water, 342.95 K | 0.00138
in water, 348.75 K | 0.00196
in water, 353.15 K | 0.0026
in water, 358.15 K | 0.00366
